For orientation: IC50 means the concentration that gives 50% inhibition. Lower therefore signals greater potency.

The text below walks through data of patent US20230117324A1, “OXAZINE MONOACYLGLYCEROL LIPASE (MAGL) INHIBITORS” (Hoffmann-La Roche Inc., priority 2018, published 2023).

In this assay the target is T1, MAGL (Homo sapiens, UniProt Q99685).
T1 sequence (Q99685 1-303): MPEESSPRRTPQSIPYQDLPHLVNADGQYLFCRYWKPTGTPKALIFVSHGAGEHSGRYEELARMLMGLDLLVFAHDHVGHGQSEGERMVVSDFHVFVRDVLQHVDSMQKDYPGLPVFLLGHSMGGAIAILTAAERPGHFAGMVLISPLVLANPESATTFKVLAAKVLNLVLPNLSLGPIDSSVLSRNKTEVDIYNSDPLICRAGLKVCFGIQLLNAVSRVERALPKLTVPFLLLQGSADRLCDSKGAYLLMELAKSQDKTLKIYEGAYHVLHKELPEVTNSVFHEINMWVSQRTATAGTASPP
Kind of assay: MAGL inhibition, 2-AG assay (hydrolysis of 2-arachidonoylglycerol, arachidonic acid by mass spectrometry). It counts as biochemical. The following applies: 2-AG assay (footnote [b]). The procedure:
Alternatively, compounds were profiled for MAGL inhibitory activity by determining the enzymatic activity by following the hydrolysis of the natural substrate 2-arachidonoylglycerol (2-AG) resulting in arachidonic acid, which can be followed by mass spectrometry. This assay is hereinafter abbreviated “2-AG assay”.
The 2-AG assay was carried out in 384 well assay plates (PP, Greiner Cat #784201) in a total volume of 20 μL. Compound dilutions were made in 100% DMSO (VWR Chemicals 23500.297) in a polypropylene plate in 3-fold dilution steps to give a final concentration range in the assay from 12.5 μM to […]. 0.25 μL compound dilutions (100% DMSO) were added to 9 μL MAGL in assay buffer (50 mM TRIS (GIBCO, 15567-027), 1 mM EDTA (Fluka, 03690-100 mL), 0.01% (v/v) Tween. After shaking, the plate was incubated for 15 min at RT. To start the reaction, 10 μL 2-arachidonoylglycerol in assay buffer was added. The final concentrations in the assay was […] and 8 μM 2-arachidonoylglyerol. After shaking and 30 min incubation at RT, the reaction was quenched by the addition of 40 μL of ACN containing 4 μM of d8-arachidonic acid. The amount of arachidonic acid was traced by an online SPE system (Agilent Rapidfire) coupled to a triple quadrupole mass spectrometer (Agilent 6460). A C18 SPE cartridge (G9205A) was used in an ACN/water liquid setup. The mass spectrometer was operated in negative electrospray mode following the mass transitions 303.1→259.1 for arachidonic acid and 311.1→267.0 for d8-arachidonic acid. The activity of the compounds was calculated based on the ratio of intensities [arachidonic acid/d8-arachidonic acid].
The compound `CC(c1ccc(C(F)(F)F)cc1)C1CN(C(=O)N2CC[C@@H]3OCC(=O)N[C@@H]3C2)C1` (single isomer, unassigned) [Example 104, (4aR,8aS)-6-(3-((R or S)-1-(4-(Trifluoromethyl)phenyl)ethyl)azetidine-1-carbonyl)hexahydro-2H-pyrido[4,3-b][1,4]oxazin-3(4H)-one] returned an IC50 of 111 nM. With `NC(=O)c1ccccc1-c1ccc(C2CN(C(=O)N3CC[C@@H]4OCC(=O)N[C@@H]4C3)C2)cc1` [Example 130, 2-[4-[1-[(4aR,8aS)-3-Oxo-4,4a,5,7,8,8a-hexahydropyrido[4,3-b][1,4]oxazine-6-carbonyl]azetidin-3-yl]phenyl]benzamide] the figure was 4 nM; with `N#CC(c1ccc(F)cc1)C1CCN(C(=O)N2CC[C@@H]3OCC(=O)N[C@@H]3C2)CC1` (stereo partly drawn) [Example 48, 2-(4-Fluorophenyl)-2-(1-((4aR,8aS)-3-oxooctahydro-2H-pyrido[4,3-b][1,4]oxazine-6-carbonyl)piperidin-4-yl)acetonitrile], 361 nM. For the compound `COc1cccc(C(c2ccccc2)C2CCN(C(=O)N3CC[C@@H]4OCC(=O)N[C@@H]4C3)CC2)c1` (single isomer, unassigned) [Example 64, (4aR,8aS)-6-(4-((S or R)-(3-Methoxyphenyl)(phenyl)methyl)piperidine-1-carbonyl)hexahydro-2H-pyrido[4,3-b][1,4]oxazin-3(4H)-one], 0.2 nM corresponded to half-maximal inhibition (IC50). With `Cn1nc(OC(c2ccc(F)cc2)C2CCN(C(=O)N3CC[C@@H]4OCC(=O)N[C@@H]4C3)CC2)cc1C(F)(F)F` (stereo partly drawn) [Example 251, (4aR,8aS)-6-(4-((4-Fluorophenyl)((1-methyl-5-(trifluoromethyl)-1H-pyrazol-3-yl)oxy)methyl)piperidine-1-carbonyl)hexahydro-2H-pyrido[4,3-b][1,4]oxazin-3(4H)-one] the figure was 1 nM. Then `O=C1CO[C@H]2CCN(C(=O)N3CC(c4ccc(N5CCC(C(F)(F)F)C5)cc4)C3)C[C@H]2N1` (stereo partly drawn) [Example 163, (4aR,8aS)-6-(3-(4-(3-(Trifluoromethyl)pyrrolidin-1-yl)phenyl)azetidine-1-carbonyl)hexahydro-2H-pyrido[4,3-b][1,4]oxazin-3(4H)-one], with 0.7 nM. In turn, `O=C1CO[C@H]2CCN(C(=O)N3CC(c4ccc(N5CCC(C(F)(F)F)C5)nc4)C3)C[C@H]2N1` (stereo partly drawn) [Example 273, (4aR,8aS)-6-[3-[6-[3-(Trifluoromethyl)pyrrolidin-1-yl]-3-pyridyl]azetidine-1-carbonyl]-4,4a,5,7,8,8a-hexahydropyrido[4,3-b][1,4]oxazin-3-one] had an IC50 of 2 nM. In turn, `O=C1CO[C@H]2CCN(C(=O)N3CCC(c4cc(Cl)cc(Cl)c4)C3)C[C@H]2N1` (stereo partly drawn) [Example 235, (4aR,8aS)-6-(3-(3,5-Dichlorophenyl)pyrrolidine-1-carbonyl)hexahydro-2H-pyrido[4,3-b][1,4]oxazin-3(4H)-one] came in with an IC50 of 243 nM. This IC50 is about 120-fold higher than that of the compound before. Then `CC(OC1CN(C(=O)N2CC[C@@H]3OCC(=O)N[C@@H]3C2)C1)c1ccc(F)cc1Cl` (single isomer, unassigned) [Example 116, (4aR,8aS)-6-[3-(S or R)-]1-(2-Chloro-4-fluoro-phenyl)ethoxy]azetidine-1-carbonyl]-4,4a,5,7,8,8a-hexahydropyrido[4,3-b][1,4]oxazin-3-one], with 92 nM; and `COc1cccc(C(c2ccc(F)cc2)C2CCN(C(=O)N3CC[C@@H]4OCC(=O)N[C@@H]4C3)CC2)c1` (single isomer, unassigned) [Example 62, (4aR,8aS)-6-[4-[(S or R)-(4-Fluorophenyl)-(3-methoxyphenyl)methyl]piperidine-1-carbonyl]-4,4a,5,7,8,8a-hexahydropyrido[4,3-b][1,4]oxazin-3-one], with 0.4 nM; and `O=C1CO[C@H]2CCN(C(=O)N3CCC(C(c4ccccc4)c4cccnn4)CC3)C[C@H]2N1` (stereo partly drawn) [Example 218, (4aR,8aS)-6-[4-[Phenyl(pyridazin-3-yl)methyl]piperidine-1-carbonyl]-4,4a,5,7,8,8a-hexahydropyrido[4,3-b][1,4]oxazin-3-one], with 54 nM. With `O=C1CO[C@H]2CCN(C(=O)N3CCC(N4CC5(CC5)c5cc(Cl)ccc54)CC3)C[C@H]2N1` [Example 265, (4aR,8aS)-6-[4-(5′-Chlorospiro[cyclopropane-1,3′-indoline]-1′-yl)piperidine-1-carbonyl]-4,4a,5,7,8,8a-hexahydropyrido[4,3-b][1,4]oxazin-3-one] the figure was 58 nM; with `O=C1CO[C@H]2CCN(C(=O)N3CC(c4ccc(N5CCCC5C(F)(F)F)cc4)C3)C[C@H]2N1` (single isomer, unassigned) [Example 194], 0.1 nM; with `O=C1CO[C@H]2CCN(C(=O)N3CCC(C(c4ccccc4)c4ccc(OCCF)cc4)CC3)C[C@H]2N1` (single isomer, unassigned) [Example 79, (4aR,8aS)-6-[4-[(S or R)-[4-(2-Fluoroethoxy)phenyl]-phenylmethyl]piperidine-1-carbonyl]-4,4a,5,7,8,8a-hexahydropyrido[4,3-b][1,4]oxazin-3-one], 0.2 nM. Then `COc1ccc(C(c2cccnc2)C2CCN(C(=O)N3CC[C@@H]4OCC(=O)N[C@@H]4C3)CC2)cc1OC` (single isomer, unassigned) [Example 135, (4aR,8aS)-6-[4-[(R or S)-(3,4-Dimethoxyphenyl)-(3-pyridyl)methyl]piperidine-1-carbonyl]-4,4a,5,7,8,8a-hexahydropyrido[4,3-b][1,4]oxazin-3-one], with 7 nM. As to `O=C1CO[C@H]2CCN(C(=O)N3CCC(c4ccccc4)CC3)C[C@H]2N1` [Example 186, (4aR,8aS)-6-(4-Phenylpiperidine-1-carbonyl)hexahydro-2H-pyrido[4,3-b][1,4]oxazin-3(4H)-one], the IC50 turned out to be 1000 nM. With `Cc1ccc(C(c2ccc(F)cc2)C2CCN(C(=O)N3CC[C@@H]4OCC(=O)N[C@@H]4C3)CC2)cc1` (single isomer, unassigned) [Example 69, (4aR,8aS)-6-[4-[(S or R)-(4-Fluorophenyl)-(4-methylphenyl)methyl]piperidine-1-carbonyl]-4,4a,5,7,8,8a-hexahydropyrido[4,3-b][1,4]oxazin-3-one] the figure was 0.1 nM; with `O=C1CO[C@H]2CCN(C(=O)N3CCC(c4ccc(OC(F)(F)F)cc4)C3)C[C@H]2N1` (stereo partly drawn) [Example 219, (4aR,8aS)-6-[3-[4-(Trifluoromethoxy)phenyl]pyrrolidine-1-carbonyl]-4,4a,5,7,8,8a-hexahydropyrido[4,3-b][1,4]oxazin-3-one], 276 nM; with `O=C1CO[C@H]2CCN(C(=O)N3CC(c4ccc(N5CCC(C(F)(F)F)C5)cn4)C3)C[C@H]2N1` (stereo partly drawn) [Example 270, (4aR,8aS)-6-(3-(5-(3-(Trifluoromethyl)pyrrolidin-1-yl)pyridin-2-yl)azetidine-1-carbonyl)hexahydro-2H-pyrido[4,3-b][1,4]oxazin-3(4H)-one], 26 nM. With `COc1cc(CC(F)(F)F)ccc1C1CN(C(=O)N2CC[C@@H]3OCC(=O)N[C@@H]3C2)C1` [Example 277, (4aR,8aS)-6-[3-[2-Methoxy-4-(2,2,2-trifluoroethyl)phenyl]azetidine-1-carbonyl]-4,4a,5,7,8,8a-hexahydropyrido[4,3-b][1,4]oxazin-3-one] the figure was 2 nM; with `O=C1CO[C@H]2CCN(C(=O)N3CC(c4ccc(OC(F)(F)F)cc4Cl)C3)C[C@H]2N1` [Example 205, (4aR,8aS)-6-(3-(2-Chloro-4-(trifluoromethoxy)phenyl)azetidine-1-carbonyl)hexahydro-2H-pyrido[4,3-b][1,4]oxazin-3(4H)-one], 18 nM.

Take `Cc1cc(C2CN(C(=O)N3CC[C@@H]4OCC(=O)N[C@@H]4C3)C2)ccc1OC(F)(F)F` [Example 203, (4aR,8aS)-6-(3-(3-Methyl-4-(trifluoromethoxy)phenyl)azetidine-1-carbonyl)hexahydro-2H-pyrido[4,3-b][1,4]oxazin-3(4H)-one]: the IC50 was 0.8 nM.

Turning to `O=C1CO[C@H]2CCN(C(=O)N3CC(c4ccc(N5CCCC5C5CC5)cc4)C3)C[C@H]2N1` (stereo partly drawn) [Example 167, (4aR,8aS)-6-(3-(4-(2-Cyclopropylpyrrolidin-1-yl)phenyl)azetidine-1-carbonyl)hexahydro-2H-pyrido[4,3-b][1,4]oxazin-3(4H)-one], the half-maximal inhibitory concentration (IC50) worked out at 0.2 nM.
